How the values were obtained:
Mer (h) = target: T1, Mer (h) (Homo sapiens, UniProt Q12866); experiment: Enzymatic activity test, Mer (h); assay type: biochemical; details: 10 μM [γ-33P]-ATP, 40 minutes, room temperature
T1 construct: purchased
T1 sequence (Q12866 21-999): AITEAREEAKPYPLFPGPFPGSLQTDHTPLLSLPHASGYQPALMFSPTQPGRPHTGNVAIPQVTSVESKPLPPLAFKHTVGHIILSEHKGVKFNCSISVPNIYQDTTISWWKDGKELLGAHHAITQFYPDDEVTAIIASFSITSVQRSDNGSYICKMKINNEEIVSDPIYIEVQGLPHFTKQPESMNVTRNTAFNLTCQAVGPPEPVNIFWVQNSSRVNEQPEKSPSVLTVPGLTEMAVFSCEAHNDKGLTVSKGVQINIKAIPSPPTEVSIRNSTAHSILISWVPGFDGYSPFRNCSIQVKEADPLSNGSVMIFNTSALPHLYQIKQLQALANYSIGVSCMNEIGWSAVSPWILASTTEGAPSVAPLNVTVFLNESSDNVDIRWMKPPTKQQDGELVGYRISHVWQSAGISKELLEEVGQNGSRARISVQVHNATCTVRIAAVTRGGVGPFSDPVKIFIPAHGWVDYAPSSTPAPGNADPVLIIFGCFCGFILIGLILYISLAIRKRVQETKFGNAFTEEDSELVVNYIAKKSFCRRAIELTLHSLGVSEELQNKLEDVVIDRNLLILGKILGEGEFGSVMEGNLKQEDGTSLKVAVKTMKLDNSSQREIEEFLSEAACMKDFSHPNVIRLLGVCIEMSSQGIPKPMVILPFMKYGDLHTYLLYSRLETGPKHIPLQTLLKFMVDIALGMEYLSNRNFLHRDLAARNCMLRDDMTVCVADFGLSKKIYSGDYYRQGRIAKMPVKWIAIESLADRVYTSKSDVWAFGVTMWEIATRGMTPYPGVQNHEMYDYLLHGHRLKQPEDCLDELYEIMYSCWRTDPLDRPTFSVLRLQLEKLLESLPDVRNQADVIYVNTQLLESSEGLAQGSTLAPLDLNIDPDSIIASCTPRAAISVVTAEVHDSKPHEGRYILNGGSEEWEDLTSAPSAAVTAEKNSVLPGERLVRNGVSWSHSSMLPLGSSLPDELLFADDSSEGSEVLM
Experimental: Assay 3: Enzymatic Activity Test of the Compounds of the Present Invention
Test substances: the compounds of the present invention, wherein the structures and preparations thereof were as described above.
(1) Preparation of the Compound Stock Solution
The compound was dissolved in 100% DMSO to prepare a stock solution with a maximum concentration of 500 μM.
(2) Preparation of the Compound Working Solution
The compound stock solution was diluted to final concentrations of 500, 150, 50, 15, 5, 1.5, 0.5, 0.15 and 0.05 μM to become the compound working solutions (50×).
(3) Preparation of Different Enzyme Reaction Solutions
The Mer (h) enzyme was dissolved in 8 mM MOPS (pH 7.0), 0.2 mM EDTA, 30 mM NaCl, and 250 μM GGMEDIYFEFIVIGGKKK to prepare an enzyme solution having a final concentration of 3.1 nM. The enzymatic reaction was activated by using 10 mM magnesium acetate and 10 μM [γ-^33P]-ATP to form an Mg/ATP mixed solution.
In a 384-well plate, the compound working solution was added to final concentrations of 10000, 3000, 1000, 300, 100, 30, 10, 3, and 1 nM. Then different enzyme reaction solutions prepared according to the above conditions were added. The incubation was carried out for 40 minutes at room temperature. The test was terminated by the addition of a 0.5% phosphoric acid solution. 10 μL of the reaction solution was taken and dropped to the P30 filter paper. The filter paper was washed 4 times with 0.425% phosphoric acid solution and once with methanol, and then placed on a scintillation counter. The […] IC50 values were calculated using GraphPad 5.0 software.

H1299 cell pMer = target: T2, H1299 cell pMer (Homo sapiens, UniProt Q12866); experiment: Inhibitory activity on the cell pMer (Western Blot); assay type: cell-based; details: H1299 cells, compound 0.35, 1.1, 3.3, 10 nM, Human MerMab 200 ng/mL
T2 construct: The H1299 cells were inoculated in a 6-well plate; endogenous in cells; host or cells: H1299
T2 sequence (Q12866 21-999): T1 sequence (Q12866 21-999)
Experimental: Assay 6: Test for Inhibitory Activities of the Compounds of the Present Invention on the Cell pMer
H1299 is a non-small cell lung cancer cell.
Test substances: the compounds of the present invention, wherein the structures thereof were as described above.
Test equipment: protein electrophoresis apparatus (manufactured by Bio Rad), transfer unit (manufactured by Bio Rad), exposure unit (manufactured by Tanon), CO2 cell incubator (manufactured by Thermo).
The H1299 cells were inoculated in a 6-well plate (containing 10% FBS 1640 medium, 5×10^5 cells per well), and adherent cells were cultivated at 37° C. in a 5% CO2 condition for 18 hours. The cells were starved overnight. Different concentrations of compounds were added. The final compound concentrations were 0.35, 1.1, 3.3 and 10 nM, and the final DMSO content was 1‰. The negative control wells contained the medium containing 1‰ DMSO. After incubating at 37° C. in a 5% CO2 condition for 60 minutes, Human MerMab (R&D, final concentration 200 ng/mL) was added to each well. After further incubating for 60 minutes, the cell total protein was extracted for Western Blot and the IC50 values were calculated using GraphPad 5.0 software. The inhibitory activity of the compound on the cell pMer was examined.

Row | Compound | IC50 (Mer (h)) [nM] | IC50 (H1299 cell pMer) [nM]
1 | COc1cc2nccc(Oc3ccc(NC(=O)c4cn(C(C)C)cc(-c5ccc(C)cc5)c4=O)nc3)c2cc1OC [Compound 1, N-(5-((6,7-dimethoxyquinolin-4-yl)oxy)pyridin-2-yl)-1-isopropyl-4-oxo-5-p-tolyl-1,4-dihydropyridin-3-carboxamide] | 2 | 1.1 to 3.3
2 | COc1cc2nccc(Oc3ccc(NC(=O)c4cn(C(C)C)cc(-c5ccc(F)cc5)c4=O)nc3)c2cc1OC [Compound 14, N-(5-((6,7-dimethoxyquinolin-4-yl)oxy)pyridin-2-yl)-5-(4-fluorophenyl)-1-isopropyl-4-oxo-1,4-dihydropyridin-3-carboxamide] | 2 | 0.35
3 | COc1cc2nccc(Oc3ccc(NC(=O)c4nn(C(C)C)cc(-c5ccc(F)cc5)c4=O)nc3)c2cc1OC [Compound 15, N-(5-((6,7-dimethoxyquinolin-4-yl)oxy)pyridin-2-yl)-5-(4-fluorophenyl)-1-isopropyl-4-oxo-1,4-dihydropyridazine-3-carboxamide] | < 1 | < 0.35
4 | COc1cc2nccc(Oc3cnc(NC(=O)c4nn(C(C)C)cc(-c5ccc(F)cc5)c4=O)nc3)c2cc1OC [Compound 16, N-(5-((6,7-dimethoxyquinolin-4-yl)oxy)pyrimidine-2-yl)-5-(4-fluorophenyl)-1-isopropyl-4-oxo-1,4-dihydropyridazine-3-carboxamide] | 2 | < 1.1
5 | COc1cc2nccc(Oc3cnc(NC(=O)c4cn(C(C)C)cc(-c5ccc(F)cc5)c4=O)nc3)c2cc1OC [Compound 20, N-(5-((6,7-dimethoxyquinolin-4-y)oxy)pyrimidine-2-yl)-5-(4-fluorophenyl)-1-isopropyl-4-oxo-1,4-dihydropyridin-3-carboxamide] | 3 | 1.1
6 | COc1cc2nccc(Oc3ccc(NC(=O)c4nn(C(C)C)cc(-c5ccc(F)cc5)c4=O)cn3)c2cc1OC [Compound 29, N-(6-((6,7-dimethoxyquinolin-4-yl)oxy)pyridin-3-yl)-1-isopropyl-4-oxo-5-para-fluorophenyl-1,4-dihydropyridazine-3-carboxamide] | 1 | < 1.1
7 | COc1cc2nccc(Oc3ccc(NC(=O)c4cn(C5CC5)cc(-c5ccc(F)cc5)c4=O)nc3)c2cc1OC [Compound 30, N-(5-((6,7-dimethoxyquinolin-4-yl)oxy)pyridin-2-yl)-1-cyclopropyl-4-oxo-5-para-fluorophenyl-1,4-hydropyridin-3-carboxamide] | < 1 | 1.1 to 3.3
8 | COc1cc2nccc(Oc3ccc(NC(=O)c4nn(C5CC5)cc(-c5ccc(F)cc5)c4=O)nc3)c2cc1OC [Compound 31] | < 1 | < 0.35

The next lines start with the values.

Row | IC50 (Mer (h)) [nM] | IC50 (H1299 cell pMer) [nM] | Compound
9 | 2 | < 1.1 | COc1cc2nccc(Oc3cnc(NC(=O)c4cn(C5CC5)cc(-c5ccc(F)cc5)c4=O)nc3)c2cc1OC [Compound 32, 1-cyclopropyl-N-(5-((6,7-dimethoxyquinolin-4-yl)oxy)pyrimidine-2-yl)-5-(4-fluorophenyl)-4-oxo-1,4-dihydropyridin-3-carboxamide]
10 | < 1 | < 1.1 | COc1cc2nccc(Oc3cnc(NC(=O)c4nn(C5CC5)cc(-c5ccc(F)cc5)c4=O)nc3)c2cc1OC [Compound 33]
11 | 2 | < 1.1 | COc1cc2nccc(Oc3ncc(NC(=O)c4nn(C(C)C)cc(-c5ccc(F)cc5)c4=O)cn3)c2cc1OC [Compound 34, N-(2-((6,7-dimethoxyquinolin-4-yl)oxy)pyrimidine-5-yl)-5-para-fluorophenyl-1-isopropyl-4-oxo-1,4-dihydropyridazine-3-carboxamide]
12 | < 1 | < 0.35 | COc1cc2nccc(Oc3ccc(NC(=O)c4nn(C5CC5)cc(-c5ccc(F)cc5)c4=O)cn3)c2cc1OC [Compound 36]
13 | < 1 | 1.1 to 3.3 | COc1cc2nccc(Oc3ncc(NC(=O)c4nn(C5CC5)cc(-c5ccc(F)cc5)c4=O)cn3)c2cc1OC [Compound 37, 1-cyclopropyl-N-(2-((6,7-dimethoxyquinolin-4-yl)oxy)pyrimidine-5-yl)-5-para-fluorophenyl-4-oxo-1,4-dihydropyridazine-3-carboxamide]
14 | 3 | – | COc1cc2nccc(Oc3ccc(NC(=O)c4cn(C(C)C)nc(-c5ccc(F)cc5)c4=O)cn3)c2cc1OC [Compound 38, N-(6-((6,7-dimethoxyquinolin-4-yl)oxy)pyridin-3-yl)-6-para-fluorophenyl-2-isopropyl-5-oxo-2,5-dihydropyridazine-4-carboxamide]
15 | 3 | 1.1 | COc1cc2nccc(Oc3cnc(NC(=O)c4cn(C(C)C)nc(-c5ccc(F)cc5)c4=O)nc3)c2cc1OC [Compound 39, N-(5-((6,7-dimethoxyquinolin-4-yl)oxy)pyrimidine-2-yl)-6-(4-fluorophenyl)-2-isopropyl-5-oxo-2,5-dihydropyridazine-4-carboxamide]
16 | 12 | – | COc1cc2nccc(Oc3ncc(NC(=O)c4cn(C(C)C)nc(-c5ccc(F)cc5)c4=O)cn3)c2cc1OC [Compound 40, N-(2-((6,7-dimethoxyquinolin-4-yl)oxy)pyrimidine-5-yl)-6-(4-fluorophenyl)-2-isopropyl-5-oxo-2,5-dihydropyridazine-4-carboxamide]
17 | – | < 1.1 | COc1cc2nccc(Oc3ccc(NC(=O)c4cn(C5CC5)nc(-c5ccc(F)cc5)c4=O)nc3)c2cc1OC [Compound 42, 2-cyclopropyl-N-(5--((6,7-dimethoxyquinolin-4-yl)oxy)pyridin-2-yl)-6-(4-fluorophenyl)-5-oxo-2,5-dihydropyridazine-4-carboxamide]
18 | – | < 1.1 | COc1cc2nccc(Oc3ccc(NC(=O)c4cn(C5CC5)nc(-c5ccc(F)cc5)c4=O)cn3)c2cc1OC [Compound 43, 2-cyclopropyl-N-(6-((6,7-dimethoxyquinolin-4-yl)oxy)pyridin-3-yl)-6-para-fluorophenyl-5-oxo-2,5-dihydropyridazine-4-carboxamide]
19 | – | < 1.1 | COc1cc2nccc(Oc3cnc(NC(=O)c4cn(C5CC5)nc(-c5ccc(F)cc5)c4=O)nc3)c2cc1OC [Compound 45, 2-cyclopropyl-N-(5-((6,7-dimethoxyquinolin-4-yl)oxy)pyrimidine-2-yl)-6-(4-fluorophenyl)-5-oxo-2,5-dihydropyridazine-4-carboxamide]
20 | – | < 0.37 | COc1cc2nccc(Oc3ccc(NC(=O)c4nn(C5CC5)cc(-c5ccc(C)cc5)c4=O)nc3)c2cc1OC [Compound 46, 1-cyclopropyl-N-(5-((6,7-dimethoxyquinolin-4-yl)oxy)pyridin-2-yl)-4-oxo-5-p-tolyl-1,4-dihydropyridazine-3-carboxamide]

— patent US20220073496A1, “NOVEL QUINOLINE DERIVATIVE INHIBITOR” (Nanjing Transthera Biosciences Co., Ltd., priority 2018, published 2022)
